Patent US20060252798A1, “Metal ion chelators and therapeutic use thereof” (priority 2003, published 2006)
Like-named read-outs stand apart in the source and are kept apart here.

Columns and labels:
IMR-32 Neuroblastoma = experiment: MTT cellular proliferation assay, IMR-32; assay type: cell-based; conditions: 72 h, 1 experiment
Experimental: (§1) The final concentration of the compounds was 0.39-50 μM. […] […] After this incubation, 0.01 mL of MTT was added to each well and the plates incubated for 2 h at 37° C. The cells were then solubilised by adding 0.1 mL of 10% SDS-50% isobutanol in 0.01 M HCl and the plates then read at 570 nm on a scanning multiwell spectrophotometer (Titertek Multiscan; Beckman Instruments Inc, California). MTT colour formation was directly proportional to the number of viable cells.
(§2) At the end of the incubation period, cell density was determined by the MTT assay (described above).

[1] = tested on: SK-N-MC neuroepithelioma cells; experiment: MTT cellular proliferation assay, SK-N-MC; assay type: cell-based, human
NCI H2452 mesothelioma = experiment: MTT cellular proliferation assay, NCI H2452; assay type: cell-based; conditions: 72 h, 3 experiments
Experimental: as §1, §2

M109 carcinoma cells [2] = experiment: 59Fe uptake from 59Fe-Tf by M109 cells; assay type: cell-based, mouse
Experimental: (§3) The ability of the compound Dp44mT to inhibit the growth of M109 lung carcinoma cells in mice was assessed. Studies were performed using M109 carcinoma cells in culture to determine the effect of Dp44mT on mobilising ^59Fe from these cells (FIG. 11C) and inhibiting ^59Fe uptake from ^59Fe-Tf (FIG. 11D). As internal controls, cells were incubated with DFO and 311. The effect of compound concentration on increasing ^59Fe mobilisation from M109 cells was examined by labelling cells with ^59Fe-Tf (0.75 μM) for 3 h at 37° C. followed by washing and reincubation with the respective compounds (0.2-25 μM) for 3 h at 37° C. (FIG. 11C). […] In contrast, 311 increased cellular ^59Fe release from 8±1% (control medium) to […] at 5 μM (FIG. 11C). For Dp44mT ^59Fe release plateaued at 2 μM, resulting in the efflux of 48±2% of ^59Fe (FIG. 11C).
At 1 μM, 311 reduced ^59Fe uptake to 40±4% of the control. […] Dp44mT had similar activity to 311 up to a concentration of 5 μM, where it reduced ^59Fe uptake to 30±1% of the control (FIG. 11D).

H69AR lung cancer = experiment: MTT cellular proliferation assay, H69AR; assay type: cell-based; conditions: 0-50 μM, 72 h, 1 experiment
Experimental: as §1, §2

[3] = tested on: SK-N-MC neuroepithelioma cells; experiment: 59Fe mobilization from prelabelled SK-N-MC neuroepithelioma cells; assay type: cell-based, human; conditions: chelators 25 μM, 3 h at 37° C.; media alone released 5% (FIG. 11A)
Experimental: The effect of chelators on ^59Fe release from prelabelled cells was studied using standard procedures.^18 Cells were prelabelled with ^59Fe-transferrin (0.75 μM) for 3 h at 37° C. […] The overlying medium was then removed and placed into γ-counting tubes. The cells were removed from the petri dishes in 1 ml of BSS using a plastic spatula and transferred to a separate set of γ-counting tubes.
The ability of the compounds to mobilise ^59Fe from SK-N-MC neuroepithelioma cells was assessed after a 3 h labelling period with ^59Fe-Tf (0.75 μM) at 37° C. […]
DFO and 311 were used as internal standards.

SK-Mel-28 melanoma cells = experiment: MTT cellular proliferation assay, SK-Mel-28; assay type: cell-based, human
[4] = tested on: MCF-7 breast cancer cells; experiment: MTT cellular proliferation assay, MCF-7; assay type: cell-based, human
DU 145 prostate cancer = experiment: MTT cellular proliferation assay, DU 145; assay type: cell-based; conditions: 72 h, 2 experiments
Experimental: as §1, §2

M109 carcinoma cells [5] = experiment: 59Fe mobilisation from prelabelled M109 cells; assay type: cell-based, mouse; conditions: 3 h, control medium 8±1%
Experimental: as §3

MRC-5 fibroblasts = experiment: MTT cellular proliferation assay, MRC-5 fibroblasts; assay type: cell-based, human; conditions: Table 3, normal cells, 72 h, MTT, read-out: IC50 MRC-5 fibroblasts
Experimental: as §1
The MRC-5 cell type is a normal human lung fibroblast cell strain that is mortal and senesces after a number of passages in vitro. The SK-N-MC neuroepithelioma cell type is immortal.
Dp2mT served as a negative control.

Ndrg1 = Ndrg1 expression in MCF-7 cells (Western blotting); assay type: cell-based, human; conditions: 25 μM, 24 h, MCF-7 cells (FIG. 16)
Experimental: FIG. 16. […] The expression of Ndrg1 and β-actin protein levels were assessed by Western blotting.
MCF-7 cells were incubated for 24 h with a range of metal ion chelators. […] Dp2mT was used as a negative control, […]

HEP G2 Hepatoma = experiment: MTT cellular proliferation assay, HEP G2; assay type: cell-based; conditions: 72 h, 1 experiment
Experimental: as §1, §2

## CN(C)C(=S)NN=C(c1ccccn1)c1ccccn1 [Dp44mT, di-2-pyridylketone 4,4-dimethyl-3-thiosemicarbazone]
IMR-32 Neuroblastoma; 0-50 μM
  IC50: 0.01 µM
[1]; Table 3, 0-25 μM, 72 h, MTT, mean ± SD, read-out: IC50 SK-N-MC neuroepithelioma
  IC50: 0.03 ± 0.01 µM
NCI H2452 mesothelioma; 0-50 μM
  IC50: 0.01 µM
M109 carcinoma cells [2]; 5 μM
  59Fe uptake: 30±1 % of the control
H69AR lung cancer
  IC50: 0.05 µM
[3]
  efflux/mobilisation of total cellular 59Fe: 47%
SK-Mel-28 melanoma cells; Table 3, 72 h, mean ± SD
  IC50: 0.06 ± 0.03 µM
[4]; Table 3, 72 h, MTT, mean ± SD, read-out: IC50 MCF-7 breast cancer
  IC50: 0.06 ± 0.01 µM
[4]; values given in Example 8, read-out: IC50, anti-proliferative activity in MCF-7 cells
  IC50: 0.1 µM
DU 145 prostate cancer; 0-50 μM
  IC50: 0.06 µM
M109 carcinoma cells [5]; 2 μM
  efflux of 59Fe (plateau): 48±2%
MRC-5 fibroblasts
  IC50: > 25 µM
Ndrg1
  up-regulation of Ndrg1: markedly increased
HEP G2 Hepatoma; 0-50 μM
  IC50: 1.36 µM

## CC(=O)N(O)CCCCCNC(=O)CCC(=O)N(O)CCCCCNC(=O)CCC(=O)N(O)CCCCCN [DFO, desferrioxamine]
IMR-32 Neuroblastoma; Homo sapiens, IMR-32, 0-50 μM
  IC50: 9.38 µM
[1]; Homo sapiens, SK-N-MC, 72 h, Table 3, 0-25 μM, 72 h, MTT, mean ± SD, read-out: IC50 SK-N-MC neuroepithelioma
  IC50: 5 µM
[1]; Homo sapiens, SK-N-MC, 90 h, Table 2, MTT assay, 90 h incubation, Mean ± SD, 4 experiments, read-out: IC50 Values of Chelators
  IC50: > 50 µM
NCI H2452 mesothelioma; Homo sapiens, NCI-H2452, 0-50 μM
  IC50: 32.3 µM
M109 carcinoma cells [2]; 0.2-25 μM (FIG. 11D)
  inhibition of 59Fe uptake: little effect
H69AR lung cancer; Homo sapiens, H69AR
  IC50: > 50 µM
[3]
  efflux/mobilisation of total cellular 59Fe: 11%
SK-Mel-28 melanoma cells; Homo sapiens, SK-MEL-28, 72 h, Table 3, mean ± SD
  IC50: 15 ± 7 µM
[4]; Homo sapiens, MCF7, 72 h, Table 3, 72 h, MTT, mean ± SD, read-out: IC50 MCF-7 breast cancer
  IC50: 14 ± 9 µM
[4]; Homo sapiens, MCF7, values given in Example 8 text, read-out: IC50, anti-proliferative activity in MCF-7 cells
  IC50: 20 µM
DU 145 prostate cancer; Homo sapiens, DU-145, 0-50 μM
  IC50: 15.8 µM
M109 carcinoma cells [5]; 25 μM
  59Fe released from cells: 12±1%
MRC-5 fibroblasts; Homo sapiens, MRC5
  IC50: > 25 µM
Ndrg1
  up-regulation of Ndrg1: no effect
HEP G2 Hepatoma; Homo sapiens, HepG2, 0-50 μM
  IC50: 18.7 µM
